Measured values taken from ChEMBL document CHEMBL5727042, “Heteroaromatic compounds as BTK inhibitors” (2018).

Biological target: T1, Tyrosine-protein kinase Tec (Homo sapiens, UniProt P42680)
T1 sequence (P42680 whole entry): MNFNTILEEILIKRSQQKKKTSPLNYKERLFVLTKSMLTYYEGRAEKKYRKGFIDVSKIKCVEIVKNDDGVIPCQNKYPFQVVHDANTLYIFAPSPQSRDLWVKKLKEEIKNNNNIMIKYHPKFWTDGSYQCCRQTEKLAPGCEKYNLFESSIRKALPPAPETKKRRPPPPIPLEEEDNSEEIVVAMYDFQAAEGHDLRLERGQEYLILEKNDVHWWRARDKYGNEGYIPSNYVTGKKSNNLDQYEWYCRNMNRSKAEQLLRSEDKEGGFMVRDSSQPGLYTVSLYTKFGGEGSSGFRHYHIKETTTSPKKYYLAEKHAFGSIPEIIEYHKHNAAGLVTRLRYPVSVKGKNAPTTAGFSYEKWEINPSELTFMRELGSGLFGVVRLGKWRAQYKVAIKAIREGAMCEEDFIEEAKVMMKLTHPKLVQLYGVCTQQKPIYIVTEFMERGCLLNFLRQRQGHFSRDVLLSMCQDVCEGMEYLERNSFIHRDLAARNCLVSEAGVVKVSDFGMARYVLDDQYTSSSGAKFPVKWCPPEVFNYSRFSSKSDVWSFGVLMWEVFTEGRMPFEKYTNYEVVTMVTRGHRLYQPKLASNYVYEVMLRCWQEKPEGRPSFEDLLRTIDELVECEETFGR
Assay: Lanthscreen Eu Kinase Binding Assay : Lanthscreen Eu Kinase Binding assay […] is performed as described above for BTK except that 1 nM human recombinant full length TEC (His-tagged) kinase and 1 nM Alexa Fluor647-labeled Kinase Tracer #178 were used instead.Representative compounds of the present invention are assessed for inhibition of BTK, BMX, and TXK measuring phosphorylation of a …

Row | IC50 [µM] | SMILES
1 | 0.13 | CC#CC(=O)N1CC[C@]2(C1)C[C@H](n1nc(-c3cnn(Cc4cc(C(F)(F)F)ccc4Cl)c3)c(C(N)=O)c1N)C2
2 | 1.2 | CC#CC(=O)N1CC[C@]2(C1)C[C@H](n1nc(-c3cnn(Cc4cc(C(F)(F)F)ccc4OC)c3)c(C(N)=O)c1N)C2
3 | 0.038 | CC#CC(=O)N1CC[C@]2(C1)C[C@H](n1nc(-c3cnn(Cc4ccc(Cl)c(C(F)(F)F)c4)c3)c(C(N)=O)c1N)C2
4 | 0.045 | CC#CC(=O)N1CC[C@]2(C1)C[C@H](n1nc(-c3cnn(Cc4cccc(C(F)(F)F)c4Cl)c3)c(C(N)=O)c1N)C2
